Measurements published in patent US6472141B2, “Kinase assays using polycations” (Caliper Technologies Corp., priority 1999, dated 2002).
{Fl-O} = fluorescein attached through an O linker; {Fluorescein} = fluorescein label

What was measured:
Assay type in all cases: binding
DNA target 192 = experiment: PNA/DNA hybridization detected by fluorescence polarization, complementary target
Text: (§1) A fluorescein-labeled peptide nucleic acid molecule 202 was used in hybridization experiments with the DNA targets 192 and 182. PNAs are generally commercially available from the Applied Biosystems Division of the Perkin-Elmer Corporation (Foster City, Calif.). The sequence of these molecules is illustrated below. In the case of the PNA molecule, the given sequence illustrates the analogous sequence of a DNA molecule. The sequences of the three molecules are as follows:
(§2) DNA sequence 192 contains 13 bases (shown in bold) that are fully complementary to the PNA probe 202, whereas 182 is a non-complementary oligonucleotide.
(§3) A solution containing 1 μM of PNA 202 in 50 mM HEPES pH 7.5 was mixed with either 5 μM of 192 or 5 μM of 182. The mixtures were left at room temperature for about 10 min. and then placed in the cuvette of a fluorimeter equipped to measure fluorescence polarization. The measurements were carried out using 490 nm for excitation and 520 nm for detection of fluorescence emission. The fluorescence polarization values were recorded first in the absence and then in the presence of poly-L-Lysine hydrobromide, having a molecular weight of approximately 70-100 kD (Sigma Chemicals). The poly-L-Lysine was added from a stock solution in water (approx. 440 μM). The final concentrations of the poly Lysine were 4.4 and 8.8 μM.

DNA target 182 = experiment: PNA/DNA hybridization detected by fluorescence polarization, non-complementary target
Text: as §1, §2, §3

DNA 244 = experiment: Single nucleotide substitution detection by fluorescence polarization of PNA probe; conditions: 250 nM probe, about 3 μM poly-L-Lysine, 50 mM HEPES pH 7.5, 100 mM NaCl
Text: The assay methods were employed to detect differential hybridization of a nucleic acid probe to a perfectly complementary target sequence and a target sequence incorporating a single base variation, e.g., a single nucleotide polymorphism (SNP). In particular, a fluoresceinated PNA probe having a sequence complementary to a subsequence of a target sequence was used to probe the target including the subsequence and a target in which an interior base of the subsequence was substituted for a different base.
The 5′ to 3′ sequences of the PNA probe (PNA 7637)(SEQ ID NO:4), the target DNA sequence (DNA 244) (SEQ. ID NO.5) and single base mismatch target DNA sequence (DNA 245) (SEQ. ID NO.6) were as follows:
The PNA probe 7637 was used at a final concentration of 250 nM, in a reaction volume of 400 μl. The buffer used was 50 mM HEPES pH 7.5, 100 mM NaCl. The solution also contained poly-L-Lysine at about 3 μM. One μl aliquots of the DNA targets 244 and 245 were added iteratively to the PNA solution and the fluorescence polarization (excitation 490, emission 520 nm) was recorded after the addition of each aliquot. The data from this experiment is illustrated in FIG. 22. […] As can also be seen, hybridization plateaued at approximately a […] of target sequence in the perfectly complementary example.

Substance	polarization value (DNA target 192; 202 hybrid with complementary 192, in the absence of poly-L-Lysine)	polarization value (DNA target 192; 202 hybrid with complementary 192, in the presence of poly-L-Lysine)	polarization value (DNA target 182; 1 μM 202 with 5 μM non-complementary 182, without poly-L-Lysine)	polarization value (DNA target 182; 202 with non-complementary 182, in the presence of poly-L-Lysine)	fluorescence polarization, perfectly complementary target vs single base mismatch target (DNA 245) (DNA 244)
5′Fl-O-GTCAAATACTCCA (all peptide nucleic acid (PNA), 5' {Fl-O}) [compound 202, ID NO.1]	about 100 mP	229 mP	86 mP	140 mnP	–
Fluorescein-CCTGTAGCA (all peptide nucleic acid (PNA), 5' {Fluorescein}) [PNA probe 7637]	–	–	–	–	substantially higher levels of fluorescence polarization
